Results taken from US7303763B2, “Compositions for conjugated estrogens and associated methods” (Watson Laboratories, Inc., priority 2001, dated 2007).

Assay: Accelerated stability study of coated 0.625 mg conjugated estrogens tablets (active compounds and degradation products per USP, LOD)
Format: physicochemical
Conditions: for Change: initial % found versus 40c
Source text: (§1) Stability was monitored under different storage conditions.
as §1

[1] = acrylic-coated 0.625 mg tablets, Lot EXPWS 1251, 10% Eudragit/RS:RL (2:1), Initial
[2] = acrylic-coated tablets, Lot EXPWS 1251, 40c, 75% RH/1m
[3] = acrylic-coated tablets, Lot EXPWS 1251, 40c, 75% RH/2m
[4] = acrylic-coated tablets, Lot EXPWS 1251, 40c, 75% RH/3m
[5] = acrylic-coated tablets, Lot EXPWS 1251, 50c, 75% RH/2 wks
[6] = acrylic-coated tablets, Lot EXPWS 1251, 75% RH/3m
[7] = sugar-coated 0.625 mg tablets, Lot EXPWS 1246, Initial
[8] = sugar-coated tablets, Lot EXPWS 1246, 40c, 75% RH/1 mnth
[9] = sugar-coated tablets, Lot EXPWS 1246, 40c, 75% RH/2 mnth
[10] = sugar-coated tablets, Lot EXPWS 1246, 50c, 75% RH/2 wks

SMILES | % Found [1] [%] | % Found [2] [%] | % Initial [2] [%] | % Found [3] [%] | % Initial [3] [%] | % Found [4] [%] | % Initial [4] [%] | % Found [5] [%] | % Initial [5] [%] | Change [6] | % Found [7] [%] | % Found [8] [%] | % Initial [8] [%] | % Found [9] [%] | % Initial [9] [%] | % Found [10] [%] | % Initial [10] [%]
C[C@]12CCc3c(ccc4cc(O)ccc34)[C@@H]1CC[C@H]2O [17a-dihydroequilenin] | 1.65 | 2.03 | 123.0 | 2.34 | 141.8 | 2.82 | 170.9 | 1.79 | 108.5 | −1.17 | 2.05 | 2.16 | 105.4 | 2.2 | 107.3 | 2.19 | 106.8
C[C@]12CC[C@H]3C(=CCc4cc(O)ccc43)[C@@H]1CC[C@@H]2O [17b-dihydroequilin] | 2.3 | 2.6 | 108.7 | 2.4 | 104.3 | 2.4 | 104.3 | 2.2 | 95.7 | −0.1 | 1.3 | 1.3 | 100.0 | 1.4 | 107.7 | 1.3 | 100.0
C[C@]12CCc3c(ccc4cc(O)ccc34)[C@@H]1CCC2=O [Equilenin] | 2.2 | 2.3 | 104.5 | 2.6 | 118.2 | 3.0 | 136.4 | 2.5 | 113.6 | −0.8 | 2.6 | 2.8 | 107.7 | 2.8 | 107.7 | 2.8 | 107.7
C[C@]12CC[C@H]3C(=CCc4cc(O)ccc43)[C@@H]1CCC2=O [Equilin] | 27.3 | 27.1 | 99.3 | 26.5 | 97.1 | 26.4 | 96.7 | 26.5 | 97.1 | 0.9 | 22.7 | 23.0 | 101.3 | 23 | 101.3 | 23.3 | 102.6

Other lines, results leading:

% Found [1] [%] | % Found [2] [%] | % Initial [2] [%] | % Found [3] [%] | % Initial [3] [%] | % Found [4] [%] | % Initial [4] [%] | % Found [5] [%] | % Initial [5] [%] | Change [6] | % Found [7] [%] | % Found [8] [%] | % Initial [8] [%] | % Found [9] [%] | % Initial [9] [%] | % Found [10] [%] | % Initial [10] [%] | SMILES
17.9 | 17.9 | 100.0 | 17.6 | 98.3 | 18.1 | 101.1 | 17.4 | 97.2 | −0.2 | 14.0 | 14.3 | 102.1 | 14.5 | 103.6 | 14.5 | 103.6 | C[C@]12CC[C@H]3C(=CCc4cc(O)ccc43)[C@@H]1CC[C@H]2O [17a-dihydroequilin]
4.6 | 4.7 | 102.2 | 4.7 | 102.2 | 4.8 | 104.3 | 4.5 | 97.8 | −0.2 | 3.8 | 3.9 | 102.6 | 3.9 | 102.6 | 3.8 | 100.0 | C[C@]12CC[C@@H]3c4ccc(O)cc4CC[C@H]3[C@@H]1CC[C@H]2O [17a-estradiol]
0.77 | 0.97 | 126.0 | 0.86 | 111.7 | 0.68 | 88.3 | 0.67 | 87.0 | 0.09 | 0.56 | 0.58 | 103.6 | 0.44 | 78.6 | 0.63 | 112.5 | C[C@]12CCc3c(ccc4cc(O)ccc34)C1CCC2O (stereo partly drawn) [17b-dihydroequilenin]
1.26 | 0.90 | 71.4 | 0.96 | 76.2 | 0.88 | 69.8 | 1.11 | 88.1 | 0.38 | 0.60 | 0.56 | 93.3 | 0.62 | 103.3 | 0.59 | 98.3 | C[C@]12CC[C@@H]3c4ccc(O)cc4CC[C@H]3[C@@H]1CC[C@@H]2O [17b-estradiol]
4.15 | 4.13 | 99.5 | 4.02 | 96.9 | 3.91 | 94.2 | 4.07 | 98.1 | 0.24 | 4.72 | 4.68 | 99.2 | 4.53 | 96.0 | 4.91 | 104.0 | C[C@]12CCC3=C(CCc4cc(O)ccc43)[C@@H]1CCC2=O [d8,9 dehydroesterone]
